{"source": "paper PMC10257519", "about": "(European journal of medicinal chemistry, 2022)", "key": {"[1]": {"tested_on": "HCT116 human colon cancer cells", "test": "Cell growth inhibition / viability assay"}, "[2]": {"test": "S9 fraction metabolic stability assay", "format": "in vitro ADME, human", "settings": "0.02 mM substrate, NADPH, 37 °C, monitored over 2 h"}, "[3]": {"tested_on": "acetyl–H3 and pan acetyl–lysine", "test": "Hyperacetylation assay by Western blot", "format": "cell-based, human", "settings": "5 and 10 μM"}, "[4]": {"tested_on": "PARP1 cleavage in HCT116 cells", "test": "Western blot analysis of PARP1 cleavage", "format": "cell-based, human", "settings": "HCT116 cells treated for 24 h"}, "NCI 60 cell lines": {"tested_on": "NCI 60 cell lines", "test": "NCI 60 cell five-dose assay", "format": "cell-based", "settings": "read-out: TGI (μM)"}, "[5]": {"settings": "reported earlier; cited from earlier work"}, "[6]": {"tested_on": "human retinal pigment epithelial RPE cells", "test": "Cell viability assay on normal cells", "settings": "at a maximum concentration of 30 μM"}, "[7]": {"settings": "Homo sapiens, HCT-116, read-out: IC50 ± SD (μM) (n = 3) on HCT116 cell line"}}, "note": "Where two headings read alike, the source gives them in different places.", "data": [{"compound": "COc1cc(NC(=O)CCCCCCNC(=O)C(O)(O)C(F)(F)F)cc(OC)c1OC", "note": "[Compound 71, 7-(3,3,3-trifluoro-2,2-dihydroxypropanamido)-N-(3,4,5-trimethoxyphenyl)heptanamide]", "values": [{"measurement": "IC50", "setting": "[1]; [7]", "result": "3.45 ± 0.36", "unit": "µM"}]}, {"compound": "O=C(CCCCCCNC(=O)C(O)(O)C(F)(F)F)Nc1nccs1", "note": "[Compound 60, N-(thiazol-2-yl)-7-(3,3,3-trifluoro-2,2-dihydroxypropanamido) heptanamide]", "values": [{"measurement": "disappearance of the M+1 peak in S9 fraction", "setting": "[2]", "result": "did not disappear over 2 h"}]}, {"compound": "N-phenyl-6-(3,3,3-trifluoro-2,2-dihydroxypropanamido)hexanamide [Compound 10b]", "values": [{"measurement": "IC50", "setting": "[1]; read-out: IC50 (μM) HCT116, effect of linker length, linker length n = 3–7", "result": "54.4 ± 6.02", "unit": "µM"}]}, {"compound": "OC(O)(c1c(F)c(F)c(-n2cc(-c3ccccc3)nn2)c(F)c1F)C(F)(F)F", "note": "[Compound 89]", "values": [{"measurement": "HCT116 IC50", "setting": "[1]; zinc-binding group screening, maximum concentration of 100 μM", "result": "inactive"}]}, {"compound": "COc1ccc(-c2cnc(NC(=O)CCCCCCNC(=O)C(O)(O)C(F)(F)F)s2)cc1", "note": "[Compound 84, N-(5-(4-methoxyphenyl)thiazol-2-yl)-7-(3,3,3-trifluoro-2,2-dihydroxypropanamido)heptanamide]", "values": [{"measurement": "levels of acetylated H3 (Western blot)", "setting": "[3]", "result": "increased levels"}, {"measurement": "levels of pan-acetyl-lysine (Western blot)", "setting": "[3]", "result": "increased levels"}, {"measurement": "cleaved PARP1 (Western blot)", "setting": "[4]", "result": "Absence of PARP1 cleavage"}]}, {"compound": "O=C(CCCCCCNC(=O)C(O)(O)C(F)(F)F)Nc1ncc(-c2ccccc2)s1", "note": "[Compound 58, N-(5-phenylthiazol-2-yl)-7-(3,3,3-trifluoro-2,2-dihydroxypropanamido)heptanamide]", "values": [{"measurement": "IC (TGI)", "setting": "NCI 60 cell lines", "result": 17, "unit": "µM"}]}, {"compound": "O=C(CCCCCCC(=O)C(F)(F)F)Nc1ccccc1", "note": "[Compound 91]", "values": [{"measurement": "half-life", "setting": "[5]", "result": "less than 30 min"}]}, {"compound": "O=C(CCCCCCNC(=O)C(O)(O)C(F)(F)F)Nc1nc2ccc(Br)cc2o1", "note": "[Compound 80, N-(6-bromobenzo[d]oxazol-2-yl)-7-(3,3,3-trifluoro-2,2-dihydroxypropanamido)heptanamide]", "values": [{"measurement": "IC50", "setting": "[1]; [7]", "result": "7.56 ± 0.73", "unit": "µM"}]}, {"compound": "COc1ccc(NC(=O)CCCCCCNC(=O)C(O)(O)C(F)(F)F)cc1", "note": "[Compound 55, N-(4-methoxyphenyl)-7-(3,3,3-trifluoro-2,2-dihydroxypropanamido)heptanamide]", "values": [{"measurement": "cell survival, RPE", "setting": "[6]", "result": "more than 50%"}]}, {"compound": "O=C(CCCCCCNC(=O)C(O)(O)C(F)(F)F)Nc1ncc(-c2ccc(Br)cc2)s1", "note": "[Compound 85, N-(5-(4-bromophenyl)thiazol-2-yl)-7-(3,3,3-trifluoro-2,2-dihydroxypropanamido)heptanamide]", "values": [{"measurement": "cleaved PARP1 (Western blot)", "setting": "[4]", "result": "Dose-dependent elevation"}]}, {"compound": "COc1ccc2sc(NC(=O)CCCCCCNC(=O)C(O)(O)C(F)(F)F)nc2c1", "note": "[Compound 83, N-(5-methoxybenzo[d]thiazol-2-yl)-7-(3,3,3-trifluoro-2,2-dihydroxypropanamido)heptanamide]", "values": [{"measurement": "cleaved PARP1 (Western blot)", "setting": "[4]", "result": "Dose-dependent elevation"}]}]}
